Experimental data as given in BigSolDB 2.1.

Cc1c(C(=O)O)cccc1[N+](=O)[O-]
solubility (mole fraction)
Conditions | 278.15 K | 283.15 K | 288.15 K | 293.15 K | 298.15 K | 303.15 K | 308.15 K | 313.15 K
in 1,4-dioxane | – | – | 0.0933 | 0.102 | 0.112 | 0.121 | 0.132 | 0.143
in DMF | 0.147 | 0.166 | 0.191 | 0.217 | 0.244 | 0.275 | 0.31 | 0.35
in acetonitrile | 0.00434 | 0.00523 | 0.00624 | 0.00737 | 0.00879 | 0.0104 | 0.0122 | 0.0143
in ethanol | 0.0152 | 0.0181 | 0.0216 | 0.0254 | 0.0297 | 0.0349 | 0.041 | 0.0478
in ethyl acetate | 0.0228 | 0.0258 | 0.0297 | 0.0336 | 0.0378 | 0.0426 | 0.0478 | 0.0538
in isobutanol | 0.00938 | 0.0114 | 0.014 | 0.0166 | 0.0201 | 0.024 | 0.028 | 0.033
in isopropanol | 0.0133 | 0.0161 | 0.019 | 0.0224 | 0.0266 | 0.0314 | 0.0362 | 0.0426
in isopropyl acetate | 0.0146 | 0.017 | 0.0196 | 0.023 | 0.027 | 0.031 | 0.0361 | 0.0413
in methanol | 0.0136 | 0.016 | 0.0193 | 0.0225 | 0.0264 | 0.0312 | 0.0367 | 0.0424
in methyl acetate | 0.0265 | 0.0302 | 0.0338 | 0.038 | 0.0428 | 0.0483 | 0.0539 | 0.06
in n-butanol | 0.0178 | 0.0213 | 0.0255 | 0.0308 | 0.0366 | 0.0434 | 0.0515 | 0.0608
in n-butyl acetate | 0.0165 | 0.0191 | 0.0227 | 0.0261 | 0.0296 | 0.034 | 0.039 | 0.0446
in n-propanol | 0.016 | 0.019 | 0.0227 | 0.027 | 0.032 | 0.0379 | 0.0441 | 0.0519
in n-propyl acetate | 0.0191 | 0.0221 | 0.0251 | 0.0293 | 0.0335 | 0.038 | 0.0432 | 0.049
